Results published in patent US6673566B1 (priority 2002, dated 2004).
“Also recorded” adds a separate entry of the source.

Key:
[1] = system: PBMC from Mycobacterium bovis-infected white-tailed deer; type: cell-based
[2] = system: white-tailed deer adherent peripheral blood mononuclear cells; assay: Nitrite production (Griess reaction) by white-tailed deer monocyte-derived macrophages stimulated with M. haemolytica LPS; type: cell-based; details: cells stimulated with LPS in the presence of L-NMMA (1.15 mM)
Experimental: Monocytes were isolated from buffy coat fractions of peripheral blood of non-infected deer by adherence in 25 cm^2 flasks at 37° C. for 1 hr. Cells were cultured for 2 wk at 37° C. with 5% CO2 in RPMI 1640 (Gibco, Invitrogen Life Technologies, Frederick, Md., USA) supplemented with L-glutamine, penicillin, streptomycin, 2-ME, 10% heat-inactivated fetal calf serum, and 10% heat-inactivated white-tailed deer serum. Medium was changed every 3-4 days during the culture period. […]
Nitrite is the stable oxidation product of NO and the amount of nitrite within culture supernatants is indicative of the amount of NO produced by cells in culture. Nitrite was measured using the Griess reaction (Rajaraman et al., 1998, Effect of vitamins A and E on nitric oxide production by blood mononuclear leukocytes from neonatal calves fed milk replacer, Journal of Dairy Science, 81:3,278-3,285) performed in 96-well microtiter plates (Immunolon 2, Dynatech Laboratories, Inc., Chantilly, Va., USA). […] Absorbencies of test and standard samples at 550 nm were measured using an automated ELISA plate reader (Molecular Devices, Menlo Park, Calif., USA). […]
Data were analyzed by one-way analysis of variance followed by Tukey-Kramer multiple comparisons test. […]

## CNC(=N)NCCC[C@H](N)C(=O)O [L-NMMA, N^G-monomethyl-L-arginine]
[1]
  Effect of L-NMMA on antigen-stimulated nitrite production: inhibited; also recorded: ablated this response; also recorded: abrogated
[2]
  Nitrite levels versus non-stimulated cultures: did not differ
